Consider 27 compounds from patent US20230113037A1 (Bayer Aktiengesellschaft, priority 2019, published 2023).

SMILES strings stand for the structures. Like-named read-outs stand apart in the source and are kept apart here.

The experiment concerns the target T1, AHR (Mus musculus, UniProt P30561).
T1 sequence (P30561 1-848 P471L/N533S/M589L): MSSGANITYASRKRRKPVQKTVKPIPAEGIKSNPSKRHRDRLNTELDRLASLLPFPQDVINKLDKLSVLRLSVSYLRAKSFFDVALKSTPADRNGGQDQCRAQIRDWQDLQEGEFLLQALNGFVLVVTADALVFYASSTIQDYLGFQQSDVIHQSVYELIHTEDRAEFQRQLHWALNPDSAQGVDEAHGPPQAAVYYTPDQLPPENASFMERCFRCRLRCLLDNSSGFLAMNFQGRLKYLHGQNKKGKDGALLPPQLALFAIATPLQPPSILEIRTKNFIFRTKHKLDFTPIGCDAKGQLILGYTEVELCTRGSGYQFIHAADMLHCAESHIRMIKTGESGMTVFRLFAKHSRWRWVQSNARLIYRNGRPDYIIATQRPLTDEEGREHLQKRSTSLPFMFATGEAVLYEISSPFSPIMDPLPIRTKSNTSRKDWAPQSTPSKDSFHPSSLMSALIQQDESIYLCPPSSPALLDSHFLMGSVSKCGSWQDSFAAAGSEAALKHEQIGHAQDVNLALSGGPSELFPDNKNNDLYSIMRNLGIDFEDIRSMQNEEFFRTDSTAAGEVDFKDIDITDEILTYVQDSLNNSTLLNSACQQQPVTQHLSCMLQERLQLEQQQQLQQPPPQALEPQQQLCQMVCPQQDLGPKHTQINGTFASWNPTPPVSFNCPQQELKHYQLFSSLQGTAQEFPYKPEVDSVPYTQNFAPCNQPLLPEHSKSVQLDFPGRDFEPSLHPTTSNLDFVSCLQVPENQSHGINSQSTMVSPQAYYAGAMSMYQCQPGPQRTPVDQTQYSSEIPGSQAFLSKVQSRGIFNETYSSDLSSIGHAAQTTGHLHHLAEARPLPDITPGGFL
Nature of the experiment: In vitro assay 3: antagonism in mouse cell line (AHR transactivation, firefly luciferase reporter, kynurenic acid prestimulated). It is filed as cell-based. On the procedure:
Examples were tested in selected biological assays one or more times. When tested more than once, data are reported as either average values or as median values, wherein • the average value, also referred to as the arithmetic mean value, represents the sum of the values obtained divided by the number of times tested, and • the median value represents the middle number of the group of values when ranked in ascending or descending order. If the number of values in the data set is odd, the median is the middle value. If the number of values in the data set is even, the median is the arithmetic mean of the two middle values.
In addition the cells were stably transfected with an AHR inducible firefly luciferase reporter gene construct that carried AHR-binding sites (DRE) in its promoter. Kynurenic acid is an endogenous AHR activating ligand and was used to prestimulate test cells prior to testing the antagonistic properties of compounds.
As positive inhibition control cells without addition of kynurenic acid were incubated. Normalization was done by positive and negative controls.
Firefly luciferase activity was determined by the SteadyGlo Luciferase Assay System (Promega, #E2550).
Background: Reporter assays use an easily measured gene product as a stand-in for the process of interest.

The mark [1] stands for this setting: mouse Hepa 1c1c7 cells, 200 μM kynurenic acid, 20 hours, read-out: AHR Antagonism Mouse IC50.
Where [2] appears, read: Hepa 1c1c7 cells, 200 μM kynurenic acid, 20 hours, firefly luciferase reporter, read-out: AHR Antagonism Mouse IC50.

As a reminder, the IC50 is the concentration that gives 50% inhibition. Regarding `O=C1NCCCC[C@@H]1Nc1nc2ccccc2c2nc(-c3ccccc3Br)nn12` [Example 453, (3S)-3-{[2-(2-bromophenyl)[1,2,4]triazolo[1,5-c]quinazolin-5-yl]amino}azepan-2-one], the IC50 under setting [1] worked out at 0.0175 µM.

Turning to `O=C1NCCC[C@H]1Nc1nc2ccccc2c2nc(-c3ccccc3Br)nn12` [Example 454, (3R)-3-{[2-(2-bromophenyl)[1,2,4]triazolo[1,5-c]quinazolin-5-yl]amino}piperidin-2-one], under setting [1], the IC50 was determined as 0.165 µM.

For `CC[C@H](Nc1nc2ccccc2c2nc(-c3ccccc3OC(F)(F)F)nn12)C(N)=O` [Example 462, (2S)-2-({2-[2-(trifluoromethoxy)phenyl][1,2,4]triazolo[1,5-c]quinazolin-5-yl}amino)butanamide], the IC50 under setting [1] was 0.0812 µM.

Take `CCCC[C@H](Nc1nc2ccccc2c2nc(-c3ccccc3OC(F)(F)F)nn12)C(N)=O` [Example 467, N^2-{2-[2-(trifluoromethoxy)phenyl][1,2,4]triazolo[1,5-c]quinazolin-5-yl}norleucinamide]: under setting [1], the IC50 came to 0.0328 µM.

Consider `O=C1NCCCC[C@H]1Nc1nc2ccccc2c2nc(-c3cc(Cl)ccc3OC(F)(F)F)nn12` [Example 497, (3R)-3-({2-[5-chloro-2-(trifluoromethoxy)phenyl][1,2,4]triazolo[1,5-c]quinazolin-5-yl}amino)azepan-2-one], for which the half-inhibitory concentration (IC50) under setting [1] came to 0.0571 µM.

For `CCCNC(=O)[C@@H](C)Nc1nc2ccccc2c2nc(-c3cc(Cl)ccc3OC(F)(F)F)nn12` [Example 502, N^2-{2-[5-chloro-2-(trifluoromethoxy)phenyl][1,2,4]triazolo[1,5-c]quinazolin-5-yl}-N-propyl-D-alaninamide], under setting [1], the IC50 came out at 0.196 µM.

`O=C1NCCC[C@H]1Nc1nc2ccccc2c2nc(-c3ccc(Cl)cc3OC(F)F)nn12` [Example 527, (3R)-3-({2-[4-chloro-2-(difluoromethoxy)phenyl][1,2,4]triazolo[1,5-c]quinazolin-5-yl}amino)piperidin-2-one]: the IC50 under setting [1] was found to be 0.00553 µM.

For `CC[C@H](Nc1nc2ccccc2c2nc(-c3ccc(Cl)cc3OC(F)F)nn12)C(N)=O` [Example 532, (2S)-2-({2-[4-chloro-2-(difluoromethoxy)phenyl][1,2,4]triazolo[1,5-c]quinazolin-5-yl}amino)butanamide], the IC50 under setting [1] came out at 0.0106 µM.

Regarding `COc1ccc(-c2nc3c4cc(C(F)(F)F)ccc4nc(N[C@@H]4CCCCNC4=O)n3n2)cc1` [Example 545, (3R)-3-{[2-(4-methoxyphenyl)-9-(trifluoromethyl)[1,2,4]triazolo[1 ,5-c]quinazolin-5-yl]amino}azepan-2-one], the IC50 under setting [1] was more than 20 µM.

As to `COc1ccc(-c2nc3c4cccc(Cl)c4nc(N[C@@H]4CCCCNC4=O)n3n2)cc1` [Example 553, (3R)-3-{[7-chloro-2-(4-methoxyphenyl)[1,2,4]triazolo[1,5-c]quinazolin-5-yl]amino}azepan-2-one], the IC50 under setting [1] amounted to 0.00118 µM.

For the compound `COc1ccc(-c2nc3c4cccc(C(F)(F)F)c4nc(N[C@H]4CCCCNC4=O)n3n2)cc1` [Example 582, (3S)-3-{[2-(4-methoxyphenyl)-7-(trifluoromethyl)[1,2,4]triazolo[1,5-c]quinazolin-5-yl]amino}azepan-2-one], the IC50 under setting [1] turned out to be 0.0441 µM.

Turning to `O=C1NCCCC[C@H]1Nc1nc2c(Br)cc(Br)cc2c2nc(-c3ccc(F)cc3)nn12` [Example 591, (3R)-3-{[7,9-dibromo-2-(4-fluorophenyl)[1,2,4]triazolo[1,5-c]quinazolin-5-yl]amino}azepan-2-one], the half-inhibitory concentration (IC50) under setting [1] turned out to be 2.42 µM.

As to `COc1ccc(-c2nc3c4cc(Br)cc(Br)c4nc(N[C@@H]4CCCCNC4=O)n3n2)cc1` [Example 593, (3R)-3-{[7,9-dibromo-2-(4-methoxyphenyl)[1,2,4]triazolo[1,5-c]quinazolin-5-yl]amino}azepan-2-one], the IC50 under setting [1] turned out to be 0.0821 µM.

For `O=C1NCCCC[C@H]1Nc1nc2ccccc2c2nc(-c3ccc(F)nc3)nn12` [Example 639, (3R)-3-{[2-(6-fluoropyridin-3-yl)[1,2,4]triazolo[1,5-c]quinazolin-5-yl]amino}azepan-2-one], under setting [1], the concentration for half-maximal inhibition (IC50) amounted to 0.000927 µM.

Turning to `COc1ccc(-c2nc3c4ccccc4nc(N[C@@H]4CN(C)CCNC4=O)n3n2)cc1` [Example 656, (6R)-6-{[2-(4-methoxyphenyl)[1,2,4]triazolo[1,5-c]quinazolin-5-yl]amino}-1-methyl-1,4-diazepan-5-one], the IC50 under setting [1] was 0.0301 µM.

For the compound `COc1ccc(-c2nc3c4ccccc4nc(N[C@H](C)C(=O)O)n3n2)cc1` [Example 658, N-[2-(4-methoxyphenyl)[1,2,4]triazolo[1,5-c]quinazolin-5-yl]-D-alanine], the IC50 under setting [1] turned out to be 0.45 µM.

In the case of `N#Cc1ccc(-c2nc3c4cccc(C(F)(F)F)c4nc(N[C@@H]4CCCCNC4=O)n3n2)cc1` [Example 671, 4-[5-{[(3R)-2-oxoazepan-3-yl]amino}-7-(trifluoromethyl)[1,2,4]triazolo[1,5-c]quinazolin-2-yl]benzonitrile], the IC50 under setting [1] was 0.000744 µM.

Regarding `O=C1NCCCC[C@H]1Nc1nc2c(C(F)(F)F)cccc2c2nc(-c3ccc(Cl)cc3OC(F)(F)F)nn12` [Example 672, (3R)-3-({2-[4-chloro-2-(trifluoromethoxy)phenyl]-7-(trifluoromethyl)[1,2,4]triazolo[1,5-c]quinazolin-5-yl}amino)azepan-2-one], the IC50 under setting [1] came to 0.00435 µM.

As to `C[C@@H](Nc1nc2ccccc2c2nc(-c3ccccc3OC(F)(F)F)nn12)C(=O)NCCN(C)C` [Example 791, formic acid-N-[2-(dimethylamino)ethyl]-N^2-{2-[2-(trifluoromethoxy)phenyl][1,2,4]triazolo[1,5-c]quinazolin-5-yl}-D-alaninamide (1/1)], under “read-out: AHR Antagonism Mouse IC50, Hepa 1c1c7 cells, 200 μM kynurenic acid, 20 hours, firefly luciferase reporter”, the concentration for half-maximal inhibition (IC50) was 0.264 µM.

Take `C[C@@H](Nc1nc2ccccc2c2nc(-c3ccccc3OC(F)(F)F)nn12)C(=O)NCCN(C)C` [Example 792, N-[2-(dimethylamino)ethyl]-N^2-{2-[2-(trifluoromethoxy)phenyl][1,2,4]triazolo[1,5-c]quinazolin-5-yl}-D-alaninamide]: the IC50 under setting [2] turned out to be 0.0287 µM.

For `C[C@@H](Nc1nc2c(Br)cccc2c2nc(-c3cnn(C)c3)nn12)C(=O)NCCCN(C)C` [Example 810, N^2-[7-bromo-2-(1-methyl-1H-pyrazol-4-yl)[1,2,4]triazolo[1,5-c]quinazolin-5-yl]-N-[3-(dimethylamino)propyl]-D-alaninamide], the IC50 under setting [2] was 0.771 µM.

As for `O=C1NCCCC[C@H]1Nc1nc2c(Br)cccc2c2nc(-c3cnn(C(F)F)c3)nn12` [Example 827, (3R)-3-({7-bromo-2-[1-(difluoromethyl)-1H-pyrazol-4-yl][1,2,4]triazolo[1,5-c]quinazolin-5-yl}amino)azepan-2-one], the IC50 under setting [2] amounted to 0.000409 µM.

As for `COc1ccc(-c2nc3c4cccc(N(C)C)c4nc(N[C@@H]4CCCCNC4=O)n3n2)cc1` [Example 829, (3R)-3-{[7-(dimethylamino)-2-(4-methoxyphenyl)[1,2,4]triazolo[1,5-c]quinazolin-5-yl]amino}azepan-2-one], under setting [2], the IC50 turned out to be 0.0468 µM.

Take `O=C1NCCCC[C@H]1Nc1nc2c(Br)cccc2c2nc(-c3ccc(Cl)cc3)nn12` [Example 830, (3R)-3-{[7-bromo-2-(4-chlorophenyl)[1,2,4]triazolo[1,5-c]quinazolin-5-yl]amino}azepan-2-one]: the 50% inhibitory concentration (IC50) under setting [2] is more than 20 µM.

Regarding `O=C1NCCNC[C@@H]1Nc1nc2c(Cl)cccc2c2nc(-c3ccc(F)cc3)nn12` [Example 964, (6S)-6-{[7-chloro-2-(4-fluorophenyl)[1,2,4]triazolo[1,5-c]quinazolin-5-yl]amino}-1,4-diazepan-5-one], the IC50 under setting [2] is 0.0046 µM.

On to `O=C1NCCNC[C@@H]1Nc1nc2ccccc2c2nc(-c3ccc(F)cc3)nn12` [Example 965, (6S)-6-{[2-(4-fluorophenyl)[1,2,4]triazolo[1,5-c]quinazolin-5-yl]amino}-1,4-diazepan-5-one], for which, under setting [2], the IC50 came to 0.012 µM.

Consider `COc1ccc(-c2nc3c4cccc(C)c4nc(N[C@H]4CNCCNC4=O)n3n2)cc1` [Example 970, (6S)-6-{[2-(4-methoxyphenyl)-7-methyl[1,2,4]triazolo[1,5-c]quinazolin-5-yl]amino}-1,4-diazepan-5-one], for which the half-maximal inhibitory concentration (IC50) under setting [2] was 0.0529 µM.
